Experimental data as given in a melting point compilation (Tetko et al.; mined from patent text by program, amines drawn as free bases though some values may be those of a salt).

SMILES	melting point
Nc1c(Br)cc(Cc2cc(Br)c(N)c(Br)c2)cc1Br	> 250 °C
CCOC(=O)C=Cc1ccc(OCc2nc(-c3ccco3)oc2C)c(OC)c1	142 to 143 °C
CCN1C(=O)C(C(=O)Nc2ccc(Cl)cc2)c2cc3c(cc21)CCO3 (configuration not stated)	175 to 176 °C
CCC(CC)=NNc1cc2c(nn1)CCN(C(=O)C(C)(C)C)C2	183 to 185 °C
COC1(c2cccc(S(=O)(=O)c3ccc4c(c3)C(C)(C)C(=O)N4C)c2)CCOCC1	164 to 166 °C
O=C(c1ccc(CBr)cc1)c1ccc([N+](=O)[O-])cc1	113 °C
COc1cc2c(c(C)c1OC)CC(C)CC2=O (configuration not stated)	106 to 108 °C
CCOc1nn(Cc2ccc(OCc3nc(-c4ccccc4)ccc3Cl)cc2)cc1CCC(=O)O	120 to 121 °C
Cc1c(C)c2c(c(C)c1O)SC(CCCI)O2 (configuration not stated)	72 to 75 °C
CCOC(=O)[C@H]1O[C@@H]1[C@H](Cc1ccccc1)NC(=O)OC(C)(C)C	55 to 61 °C
CCc1ccc2c(c1)C=Cc1sc(C)nc1C2c1cn(C)c(=O)[nH]c1=S (configuration not stated)	265 °C
COC(=O)c1ccc(OCCCNC(=O)C[C@H]2O[C@H](c3cccc(OC)c3OC)c3cc(Cl)ccc3N(CC(C)(C)CO)C2=O)cc1	147 to 149 °C
Nc1nnc(-c2ccc3occ(-c4ccccc4Cl)c3c2)o1	220 to 221 °C
CC(Cc1c[nH]c2ccccc12)(NC(=O)OC1C2CC3CC(C2)CC1C3)C(=O)NC1(CC(=O)O)CCCCC1 (configuration not stated)	174 °C
Cc1ccc(S(=O)(=O)NN=C2CCCCCCCC2)cc1	135 to 138 °C
O=C(NC(C(=O)O)C(=O)O)OCc1ccccc1	144 to 145 °C
CCCCCCCCNC(=O)c1cscc1C(=O)O	120 to 122 °C
Cc1cc(O)ccc1S(C)(=O)=O	105 °C
CCCc1cc(C=O)c(O)cc1O	92.8 to 93.6 °C
O=C(Nc1ccc(CBr)c(C(F)(F)F)c1)C(F)(F)F	119 to 120 °C
CSc1ccccc1C1C(=O)c2ccccc2C1=O	191 to 193 °C
COC(=O)C(NS(=O)(=O)c1ccc(-c2ccc(NC(=O)c3cc4cc(OC)ccc4o3)cc2)cc1)C(C)C (configuration not stated)	234 to 235 °C
CSc1ccc(-n2c(-c3ccccc3)nc(SC)c(C#N)c2=O)cc1	204 to 205 °C
CCc1cn(S(=O)(=O)c2ccc(C)cc2)c2cc(C(=O)Nc3c(Cl)cncc3Cl)ccc12	147 to 149 °C
Fc1ccc2c(c1)C(OCc1c(F)cccc1F)C(Cn1ccnc1)S2 (configuration not stated)	167 to 168 °C

SMILES	melting point
O=C(O)CCC(=NO)c1ccc(-c2ccc(Cl)cc2)cc1	155 to 157 °C
CCCc1c(CSc2nccc(OCC(=O)OCC)n2)ccc(C(C)=O)c1O	112 to 117 °C
CCCc1nc2cccc(C(=O)O)c2n1Cc1ccc(-c2ccccc2-c2nc(=O)o[nH]2)cc1	169 to 171 °C
CCC[C@H]1CC[C@H](c2ccc(F)c(F)c2)CC1	-15.4 °C
O=[N+]([O-])c1c(Br)nn(Cc2ccccc2)c1NCCO	110 to 112 °C
Cc1cc2c(-c3cccc(Br)c3)c(CC(=O)Nc3ccc(F)cc3C(F)(F)F)c(=O)oc2cc1Cl	222 to 223 °C
CSC1COc2cc(NS(C)(=O)=O)c(Oc3ccccc3)cc2C1=O (configuration not stated)	126 to 128 °C
Cc1ccc2sc(S(N)(=O)=O)cc2c1	212 to 213 °C
CC(C)(C)c1cc(Cc2nc(S)n[nH]2)cc(C(C)(C)C)c1O	184 to 185 °C
CCCCN(CCCC)p1oc2c(C(C)(C)C)cc(C(C)(C)C)cc2c2cc(C(C)(C)C)cc(C(C)(C)C)c2o1	140 °C
O=C(O)[C@@H]1Cc2ccccc2C[C@H]1C(=O)O (relative stereo)	229 to 232 °C
Cc1c(C)c(N2CCN(c3ccc(S(C)=O)cc3)CC2)c(C)c2c1OC(C)(C)C2 (configuration not stated)	223 to 227 °C
O=C1CC(O)CN1C(=O)Nc1ccccc1 (configuration not stated)	104 °C
CC(C)(C)OC(=O)N1CCC(c2ccc3nc(-c4ccc(C(F)(F)F)cc4)oc3c2)CC1	174 to 179 °C
CC(c1oc2ccccc2c(=O)c1-c1cccc(F)c1)n1nc(-c2ccc3c(c2)CCO3)c2c(N)ncnc21 (configuration not stated)	238 to 241 °C
O=C(Nc1ccccn1)c1nc2ccccc2[nH]1	206 °C
CCCOc1cccc(-c2ccc3c(c2)C=C(C(=O)Nc2ccc(CN(C)C4CCOCC4)cc2)CCS3(=O)=O)c1	219 to 221 °C
CSc1nc(Cl)nc2sc(C)cc12	111 to 112 °C
CS(=O)(=O)N1CCCn2c(nc3c(N)nc4ccccc4c32)C1	280 °C
COc1ccc(C(=O)Nc2ccc(C)c(Cl)c2)cc1N	153 to 157 °C
CCCOC(=O)C1=C(C)NC(CO)=C(C(=O)OC)C1c1ccccc1C#N (configuration not stated)	149 to 152 °C
O=C(OC1CCCCC1)c1ncn2c1[C@@H]1CCCN1C(=O)c1c-2ccc(F)c1Cl	163 to 166 °C
COc1ccc(-c2c(-c3ccccc3)nn3ccccc23)nn1	203 to 205 °C
CCc1cc(OCc2ccc(-c3ccccc3-c3nnn(C(c4ccccc4)(c4ccccc4)c4ccccc4)n3)cc2)c2nc(OCC=O)ccc2n1	168 to 169 °C
CC1(CN2CCC(C(=O)c3ccc(C(F)(F)F)cc3)CC2)Cn2cc([N+](=O)[O-])nc2O1 (configuration not stated)	172 to 174 °C

SMILES	melting point
C#CCC#CCON1C(=O)c2ccccc2C1=O	134 to 135 °C
CCOCc1nc2c(N)nc3cc(OCc4ccccc4)ccc3c2n1CC(C)(C)NS(C)(=O)=O	264 to 266 °C
Cn1nc(OC(c2ccccc2)c2ccccc2)c(=O)nc1Cl	182 to 184 °C
CCCCSc1cc(C(=O)O)cc(S(N)(=O)=O)c1Oc1ccccc1	222 to 224 °C
CCN1C(=O)C(C)(C)C(=O)N(C)c2cc(OCCCN(CCc3cccnc3)C(=O)c3ccncc3)ccc21	88.1 to 92.2 °C
CCCCOc1cc(/C=C(\OCC)C(=O)O)ccc1OCCc1ccc(OCC)c(Cl)c1	109 °C
CSC1NC(=O)N(C)C(=O)N1C (configuration not stated)	137 to 139 °C
O=C(CC1CCC1)N[C@H]1CC[C@H](CCN2CCN(c3nccc4c3OCC4)CC2)CC1	148 °C
CN(CC(O)c1ccc(C=O)cc1)C(=O)OC(C)(C)C (configuration not stated)	37 to 39 °C
O=[N+]([O-])c1cccc(-c2ccc3c(n2)[nH]c2ccccc23)c1	185 °C
O=c1oc2ccccc2c(O)c1C1CC(c2ccc(Oc3ccc(-c4ccccc4)cc3)cc2)Cc2ccccc21 (configuration not stated)	124 to 127 °C
CC(CN1CCN(c2cccc(C(F)(F)F)c2)CC1)C(O)c1ccc2c(c1)oc(=O)n2C (configuration not stated)	92 °C
COc1ccc(C(=NO)c2cccc(F)c2F)c(O)c1Cl	198 to 199 °C
CC1(C)OC(c2ccc(S(N)(=O)=O)cc2)=C(c2cc3ccccc3s2)C1=O	120 to 121 °C
CCOc1nc(-c2ccc(F)cc2C)c2c(n1)N(c1c(F)cccc1F)C(=O)NC2	191 to 194 °C
O=C(N[C@H](Cc1ccccc1)C(=O)O)OCc1cc2cc(-c3ccccc3)ccc2[nH]1	168 to 174 °C
Cc1nc2c(CCCc3ccccc3)cccn2c1CC#N	66.5 to 68 °C
CSc1ncc(Cc2cccnc2)c(=O)[nH]1	247 to 249 °C
Cc1oc(-c2ccccc2)nc1CCCc1ccc(CC(C(=O)O)c2cccnc2)cc1 (configuration not stated)	112 to 114 °C
C[C@H](NC(=O)C[C@@H](CCO)c1ccc(F)cc1)c1ccccc1	170 °C
O=S(=O)(N=CN(CCO)CCO)c1cc(Br)cc(Br)c1	118 °C
OCC1OC(n2cnc3c(NCCc4cccs4)ncnc32)C(O)C1O (configuration not stated)	153 to 154 °C
CC(c1oc2ccccc2c(=O)c1-c1cccc(F)c1)n1nc(-c2cccc(C(=O)NC3CC3)c2)c2c(N)ncnc21 (configuration not stated)	127 to 132 °C
N#Cc1ccccc1SC1SCC(O)C(O)C1O (configuration not stated)	118 to 119 °C
Cc1cc(C)c(-c2c(O)sc(-c3ccccc3)nc2=O)c(C)c1	240 to 242 °C

SMILES	melting point
CCOC(=O)C1COc2ccc(C(C)=O)cc2O1 (configuration not stated)	57 °C
COc1ccc2c(c1)c(CC(=O)OCC(=O)O)c(C)n2C(=O)c1cccc(C(F)(F)F)c1	136 to 138 °C
CCSC1=NCC(=O)N1c1ccc(F)cc1	114 to 115 °C
CC(C)n1nc(-c2c(OC3CCOCC3)nc(N)nc2-c2ccccc2)ccc1=O	207 to 209 °C
CC(C)Oc1nc(-n2cccn2)nc(Cl)c1-c1c(F)cc(F)cc1F	106 to 107 °C
Nc1ncc(-c2ccccc2)nc1SC1CCCC1	92 to 94 °C
Cc1ccccc1C(=O)N1CCC(=O)c2cc(F)c(Cl)cc21	84.9 to 88.7 °C
OC1Cc2c(I)cccc2CC1N1CCC(c2ccccc2)CC1 (configuration not stated)	194 °C
CC(=O)Nc1ccc(Br)c2c1CN(C(C)=O)CC2	127 to 130 °C
CC(=O)ON=C1CCCN(C(=O)c2ccc(NC(=O)c3ccccc3Cl)cc2)c2ccccc21	142 to 144 °C
CON(C)C(=O)c1cc(-c2ccccc2)n[nH]1	135 to 138 °C
Cc1c(CNCC2CCOCC2)n(C)c2c(C)c(NC(=O)c3ccc(OC[C@@H]4CCCO4)cc3)ccc12	173 to 174 °C
Cc1cccc2c1N(CC(=O)N1CC3CCC(CC3)C1)C(=O)C(NC(=O)c1cc3ccccc3[nH]1)N=C2C1CCCCC1 (racemic)	206 to 212 °C
NCC1Cc2cc(C(F)(F)F)cc(-c3ccoc3)c2O1 (configuration not stated)	> 250 °C
COC(=O)C1CN(C(=O)c2ccccc2-n2cccn2)c2ccc(C)cc2CN1S(=O)(=O)c1ccc(OC)cc1 (configuration not stated)	240 to 242 °C
COc1cc(CCCCCCCO)ccc1OCc1nc(-c2ccccc2)oc1C	78 to 79 °C
Cc1cc2c(-c3cccc(/C=C/C=O)c3)c(CC(=O)Nc3ccc(F)cc3C(F)(F)F)c(=O)oc2cc1Cl	232 to 235 °C
COc1ccc(N2CCOCC2)c2sc(C(N)=S)nc12	238 °C
CC(=O)c1c(C)[nH]c(-c2ccncc2)c1-c1ccncc1	236 to 239 °C
COC(=O)c1c(O)c(-c2ccccc2)nn1C	88 to 90 °C
O=Cc1c2cccc(Cl)c2cc2c(Cl)cccc12	218 to 220 °C
CC(C)(C=O)Cc1cc(C(C)(C)C)c(O)c(C(C)(C)C)c1	72 to 74 °C
